# Measured values as given in patent US11981658B2, “Substituted aminopyridine compounds as EGFR inhibitors” (YUHAN CORPORATION, priority 2021, dated 2024).
# Where two headings read alike, the source gives them in different places.
# Assays:
# EGFR Del19/T790M/C797S = EGFR Del19/T790M/C797S (Homo sapiens, UniProt P00533, C797S/DEL746-750/T790M); assay: Biochemical EGFR kinase inhibition assay (Lance Ultra TR-FRET), triple mutant del19/T790M/C797S
# In short: (§1)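 Step 1: compound in kinase buffer, 0.003–10 μM. Step 2: kinase reaction 1 h at room temperature. Step 4: TR-FRET read at 615/665 nm; IC50 calculated.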
# EGFR L858R/T790M/C797S = EGFR L858R/T790M/C797S (Homo sapiens, UniProt P00533, C797S/L858R/T790M); assay: Biochemical EGFR kinase inhibition assay (Lance Ultra TR-FRET), triple mutant L858R/T790M/C797S
# EGFR L858R/T790M/C797S, sequence (P00533 25-1210 T790M/C797S/L858R): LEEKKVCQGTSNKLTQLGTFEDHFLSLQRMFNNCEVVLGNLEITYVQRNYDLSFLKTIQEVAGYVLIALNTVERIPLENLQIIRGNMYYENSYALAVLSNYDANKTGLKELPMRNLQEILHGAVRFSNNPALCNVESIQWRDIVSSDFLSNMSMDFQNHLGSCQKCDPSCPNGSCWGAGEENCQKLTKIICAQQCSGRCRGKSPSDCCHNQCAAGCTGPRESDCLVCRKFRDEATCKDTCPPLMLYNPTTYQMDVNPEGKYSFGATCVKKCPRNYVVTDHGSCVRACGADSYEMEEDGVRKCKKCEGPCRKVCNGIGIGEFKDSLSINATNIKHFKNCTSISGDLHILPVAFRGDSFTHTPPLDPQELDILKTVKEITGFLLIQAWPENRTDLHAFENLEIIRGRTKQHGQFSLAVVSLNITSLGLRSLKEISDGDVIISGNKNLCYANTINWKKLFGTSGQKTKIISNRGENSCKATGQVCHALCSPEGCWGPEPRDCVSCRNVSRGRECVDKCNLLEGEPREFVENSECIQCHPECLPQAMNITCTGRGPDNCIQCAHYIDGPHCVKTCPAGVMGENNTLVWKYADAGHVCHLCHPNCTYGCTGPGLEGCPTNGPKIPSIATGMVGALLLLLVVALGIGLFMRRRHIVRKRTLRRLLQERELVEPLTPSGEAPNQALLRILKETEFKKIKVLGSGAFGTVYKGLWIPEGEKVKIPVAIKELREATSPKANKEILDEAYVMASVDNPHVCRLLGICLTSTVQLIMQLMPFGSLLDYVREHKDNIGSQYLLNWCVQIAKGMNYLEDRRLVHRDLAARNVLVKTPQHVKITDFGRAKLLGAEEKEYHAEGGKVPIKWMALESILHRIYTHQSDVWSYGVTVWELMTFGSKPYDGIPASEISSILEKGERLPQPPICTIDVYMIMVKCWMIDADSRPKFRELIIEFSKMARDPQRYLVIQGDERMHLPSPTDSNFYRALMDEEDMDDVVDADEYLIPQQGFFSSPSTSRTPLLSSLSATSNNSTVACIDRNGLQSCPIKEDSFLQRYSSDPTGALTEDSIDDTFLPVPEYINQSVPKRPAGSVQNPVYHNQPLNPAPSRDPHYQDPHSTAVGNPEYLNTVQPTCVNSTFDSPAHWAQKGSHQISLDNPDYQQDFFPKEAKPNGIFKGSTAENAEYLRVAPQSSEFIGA
# In short: as §1
# EGFR Del19/C797S = EGFR Del19/C797S (Homo sapiens, UniProt P00533, C797S/DEL746-750); assay: Biochemical EGFR kinase inhibition assay (Lance Ultra TR-FRET), double mutant del19/C797S
# In short: as §1
# EGFR L858R/C797S = EGFR L858R/C797S (Homo sapiens, UniProt P00533, C797S/L858R); assay: Biochemical EGFR kinase inhibition assay (Lance Ultra TR-FRET), double mutant L858R/C797S
# EGFR L858R/C797S, sequence (P00533 25-1210 C797S/L858R): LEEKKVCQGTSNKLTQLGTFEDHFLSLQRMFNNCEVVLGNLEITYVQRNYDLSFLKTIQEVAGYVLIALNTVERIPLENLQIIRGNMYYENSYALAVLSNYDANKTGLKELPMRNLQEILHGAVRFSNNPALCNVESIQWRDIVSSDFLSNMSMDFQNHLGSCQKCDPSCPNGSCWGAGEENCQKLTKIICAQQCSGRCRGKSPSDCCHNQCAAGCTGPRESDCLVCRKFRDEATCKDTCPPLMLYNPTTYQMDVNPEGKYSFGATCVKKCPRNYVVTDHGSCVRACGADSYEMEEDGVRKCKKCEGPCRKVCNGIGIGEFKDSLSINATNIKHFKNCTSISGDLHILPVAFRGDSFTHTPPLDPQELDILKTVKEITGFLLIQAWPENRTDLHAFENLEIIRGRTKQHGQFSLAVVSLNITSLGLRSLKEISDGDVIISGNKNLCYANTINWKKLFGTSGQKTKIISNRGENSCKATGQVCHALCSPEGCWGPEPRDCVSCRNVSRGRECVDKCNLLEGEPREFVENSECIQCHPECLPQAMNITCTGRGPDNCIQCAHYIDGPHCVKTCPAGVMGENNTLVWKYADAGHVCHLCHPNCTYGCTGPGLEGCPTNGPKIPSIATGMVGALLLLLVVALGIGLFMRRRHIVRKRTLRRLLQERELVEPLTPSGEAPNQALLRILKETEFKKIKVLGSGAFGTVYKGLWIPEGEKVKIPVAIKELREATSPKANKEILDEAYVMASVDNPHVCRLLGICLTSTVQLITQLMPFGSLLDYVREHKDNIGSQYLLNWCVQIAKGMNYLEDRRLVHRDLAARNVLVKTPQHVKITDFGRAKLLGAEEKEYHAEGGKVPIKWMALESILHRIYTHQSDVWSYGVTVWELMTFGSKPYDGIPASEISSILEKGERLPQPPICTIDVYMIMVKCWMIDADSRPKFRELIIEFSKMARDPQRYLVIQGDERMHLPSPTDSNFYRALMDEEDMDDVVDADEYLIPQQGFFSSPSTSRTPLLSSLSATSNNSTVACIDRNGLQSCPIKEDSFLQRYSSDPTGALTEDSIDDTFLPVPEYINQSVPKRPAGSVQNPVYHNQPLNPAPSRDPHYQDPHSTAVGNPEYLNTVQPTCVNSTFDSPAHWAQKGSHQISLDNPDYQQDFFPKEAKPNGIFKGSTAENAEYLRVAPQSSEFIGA
# In short: as §1
# EGFR wildtype (WT) = EGFR wildtype (WT) (Homo sapiens, UniProt P00533); assay: Biochemical EGFR kinase inhibition assay (Lance Ultra TR-FRET), wildtype
# EGFR wildtype (WT), sequence (P00533 25-1210): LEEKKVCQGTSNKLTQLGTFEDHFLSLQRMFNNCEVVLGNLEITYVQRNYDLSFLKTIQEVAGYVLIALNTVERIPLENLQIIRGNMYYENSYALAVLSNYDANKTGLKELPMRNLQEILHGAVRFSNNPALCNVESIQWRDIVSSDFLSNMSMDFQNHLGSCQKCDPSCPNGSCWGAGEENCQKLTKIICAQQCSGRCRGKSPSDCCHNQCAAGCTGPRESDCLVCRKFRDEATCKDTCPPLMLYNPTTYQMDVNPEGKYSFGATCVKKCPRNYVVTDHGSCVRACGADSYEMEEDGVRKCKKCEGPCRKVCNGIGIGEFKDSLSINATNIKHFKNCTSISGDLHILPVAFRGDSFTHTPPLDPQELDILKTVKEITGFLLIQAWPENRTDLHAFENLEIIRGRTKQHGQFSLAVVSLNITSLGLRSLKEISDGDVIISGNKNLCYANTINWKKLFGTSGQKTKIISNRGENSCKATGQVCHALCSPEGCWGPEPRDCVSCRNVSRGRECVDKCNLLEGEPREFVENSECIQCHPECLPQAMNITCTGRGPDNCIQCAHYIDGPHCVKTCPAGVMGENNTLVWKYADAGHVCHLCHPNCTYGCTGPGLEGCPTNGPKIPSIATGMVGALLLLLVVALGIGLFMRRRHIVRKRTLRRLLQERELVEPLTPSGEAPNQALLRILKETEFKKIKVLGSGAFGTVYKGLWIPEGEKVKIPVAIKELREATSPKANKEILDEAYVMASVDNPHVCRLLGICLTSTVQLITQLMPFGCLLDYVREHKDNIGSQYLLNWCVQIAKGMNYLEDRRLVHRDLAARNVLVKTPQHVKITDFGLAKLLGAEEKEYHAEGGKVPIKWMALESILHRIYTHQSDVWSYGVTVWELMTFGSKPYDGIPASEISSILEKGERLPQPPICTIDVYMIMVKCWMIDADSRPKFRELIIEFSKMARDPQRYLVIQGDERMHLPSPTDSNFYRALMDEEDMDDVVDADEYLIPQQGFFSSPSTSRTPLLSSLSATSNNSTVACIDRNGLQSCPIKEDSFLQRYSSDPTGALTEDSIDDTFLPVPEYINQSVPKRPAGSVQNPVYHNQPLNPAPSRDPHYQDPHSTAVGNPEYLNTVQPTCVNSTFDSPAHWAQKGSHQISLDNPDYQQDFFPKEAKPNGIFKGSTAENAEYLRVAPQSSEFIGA
# In short: as §1
# [1] = IC50 Del19/T790M/C797S (nM), 100 μM ATP
# [2] = Km ATP, read-out: IC50 Del19/T790M/C797S (nM), Km ATP
# [3] = IC50 L858R/T790M/C797S (nM), 100 μM ATP
# [4] = Km ATP, read-out: IC50 L858R/T790M/C797S (nM), Km ATP
# [5] = IC50 Del19/C797S (nM), 100 μM ATP
# [6] = Km ATP, read-out: IC50 Del19/C797S (nM), Km ATP
# [7] = IC50 L858R/C797S (nM), 100 μM ATP
# [8] = Km ATP, read-out: IC50 L858R/C797S (nM), Km ATP
# [9] = Km ATP, read-out: IC50 WT (nM), Km ATP
# EGFR Del19/T790M/C797S, sequence (P00533 with tags, fused parts or gaps DEL746-750/T790M/C797S): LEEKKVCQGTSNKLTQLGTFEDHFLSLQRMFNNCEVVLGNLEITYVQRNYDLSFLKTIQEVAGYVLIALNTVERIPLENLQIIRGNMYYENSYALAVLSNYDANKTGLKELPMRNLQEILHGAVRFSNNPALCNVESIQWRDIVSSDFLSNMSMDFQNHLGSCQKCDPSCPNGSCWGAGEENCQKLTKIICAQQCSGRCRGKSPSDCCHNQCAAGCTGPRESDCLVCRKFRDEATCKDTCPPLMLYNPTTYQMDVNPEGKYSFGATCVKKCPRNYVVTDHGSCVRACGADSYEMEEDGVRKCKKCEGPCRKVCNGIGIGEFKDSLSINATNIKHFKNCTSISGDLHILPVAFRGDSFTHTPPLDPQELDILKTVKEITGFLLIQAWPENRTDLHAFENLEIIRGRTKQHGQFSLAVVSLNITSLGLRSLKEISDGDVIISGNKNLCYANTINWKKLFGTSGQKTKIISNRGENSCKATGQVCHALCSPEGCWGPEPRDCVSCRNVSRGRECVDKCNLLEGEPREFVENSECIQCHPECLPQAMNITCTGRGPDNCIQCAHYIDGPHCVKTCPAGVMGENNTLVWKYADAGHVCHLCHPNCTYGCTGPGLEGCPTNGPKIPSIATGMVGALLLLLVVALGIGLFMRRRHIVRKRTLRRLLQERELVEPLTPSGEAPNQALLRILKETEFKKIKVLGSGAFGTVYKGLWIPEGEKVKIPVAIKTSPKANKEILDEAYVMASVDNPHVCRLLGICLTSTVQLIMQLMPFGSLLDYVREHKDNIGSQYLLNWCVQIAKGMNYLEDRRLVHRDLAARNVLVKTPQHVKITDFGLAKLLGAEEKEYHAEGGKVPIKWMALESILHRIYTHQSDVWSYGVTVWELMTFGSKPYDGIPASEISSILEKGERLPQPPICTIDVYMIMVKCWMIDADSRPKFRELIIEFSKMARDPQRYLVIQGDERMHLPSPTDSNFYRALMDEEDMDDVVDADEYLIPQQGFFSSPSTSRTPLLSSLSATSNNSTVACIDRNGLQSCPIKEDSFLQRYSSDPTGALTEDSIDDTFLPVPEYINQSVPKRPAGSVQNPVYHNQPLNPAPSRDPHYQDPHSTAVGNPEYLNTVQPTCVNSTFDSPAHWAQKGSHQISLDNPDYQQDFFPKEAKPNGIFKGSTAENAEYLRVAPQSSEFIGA
Structure (SMILES),IC50 (EGFR Del19/T790M/C797S; [1]),IC50 (EGFR Del19/T790M/C797S; [2]),IC50 (EGFR L858R/T790M/C797S; [3]),IC50 (EGFR L858R/T790M/C797S; [4]),IC50 (EGFR Del19/C797S; [5]),IC50 (EGFR Del19/C797S; [6]),IC50 (EGFR L858R/C797S; [7]),IC50 (EGFR L858R/C797S; [8]),"IC50 (EGFR wildtype (WT); IC50 WT (nM), 100 μM ATP)",IC50 (EGFR wildtype (WT); [9])
"CS(=O)(=O)N1CCC(C#Cc2cnc(Nc3ccnc(-c4cnn(S(=O)(=O)C5CC5)c4)n3)cc2NCC2CCC(CO)CC2)C1 (stereo not drawn) [Example 400, ((1r,4r)-4-(((2-((2-(1-(Cyclopropylsulfonyl)-1H-pyrazol-4-yl)pyrimidin-4-yl)amino)-5-((1-(methylsulfonyl)pyrrolidin-3-yl)ethynyl)pyridin-4-yl)amino)methyl)cyclohexyl)methanol]",19.3 nM,34 nM,22.5 nM,26.1 nM,35.6 nM,12.8 nM,1570 nM,17.9 nM,> 10000 nM,310 nM
"CC1(CO)CCN(c2cc(Nc3ccnc(-c4cnn(S(=O)(=O)C5CC5)c4)n3)ncc2C#CC2CCN(S(C)(=O)=O)C2)CC1 (stereo not drawn) [Example 401, (1-(2-((2-(1-(Cyclopropylsulfonyl)-1H-pyrazol-4-yl)pyrimidin-4-yl)amino)-5-((1-(methylsulfonyl)pyrrolidin-3-yl)ethynyl)pyridin-4-yl)-4-methylpiperidin-4-yl)methanol]",0.4 nM,0.7 nM,0.5 nM,0.4 nM,0.6 nM,0.3 nM,11.9 nM,0.8 nM,3010 nM,3.9 nM
"CC1(C#Cc2cnc(Nc3ccnc(-c4cnn(S(=O)(=O)C5CC5)c4)n3)cc2N[C@H]2CC[C@@H](CO)CC2)CC1 [Example 402, ((1s,4s)-4-((2-((2-(1-(Cyclopropylsulfonyl)-1H-pyrazol-4-yl)pyrimidin-4-yl)amino)-5-((1-methylcyclopropyl)ethynyl)pyridin-4-yl)amino)cyclohexyl)methanol]",2.6 nM,,3.9 nM,,8.4 nM,7.9 nM,104 nM,3.9 nM,> 10000 nM,62.7 nM
"CC1(C#Cc2cnc(Nc3ccnc(-c4cnn(S(=O)(=O)C5CC5)c4)n3)cc2NC[C@H]2CC[C@H](O)CC2)CC1 [Example 403, (1r,4r)-4-(((2-((2-(1-(Cyclopropylsulfonyl)-1H-pyrazol-4-yl)pyrimidin-4-yl)amino)-5-((1-methylcyclopropyl)ethynyl)pyridin-4-yl)amino)methyl)cyclohexan-1-ol]",16.2 nM,,50.3 nM,,140 nM,,1920 nM,,> 10000 nM,
"CC1(O)CCN(c2cc(Nc3ccnc(-c4cnn(S(=O)(=O)C5CC5)c4)n3)ncc2C#CC2(C)CC2)CC1 [Example 404, 1-(2-((2-(1-(Cyclopropylsulfonyl)-1H-pyrazol-4-yl)pyrimidin-4-yl)amino)-5-((1-methylcyclopropyl)ethynyl)pyridin-4-yl)-4-methylpiperidin-4-ol]",1.7 nM,,2.9 nM,,3.6 nM,5.3 nM,55.6 nM,2.7 nM,9350 nM,45.8 nM
"CC1(C#Cc2cnc(Nc3ccnc(-c4cnn(S(=O)(=O)C5CC5)c4)n3)cc2NC[C@H]2CC[C@H](CO)CC2)CC1 [Example 405, ((1r,4r)-4-(((2-((2-(1-(Cyclopropylsulfonyl)-1H-pyrazol-4-yl)pyrimidin-4-yl)amino)-5-((1-methylcyclopropyl)ethynyl)pyridin-4-yl)amino)methyl)cyclohexyl)methanol]",46.5 nM,,94.2 nM,,249 nM,,3900 nM,,> 10000 nM,
"CN(C)CC1(C)CCN(c2cc(Nc3ccnc(-c4cnn(S(=O)(=O)C5CC5)c4)n3)ncc2C#CC2(C)CC2)CC1 [Example 406, 2-(1-(Cyclopropylsulfonyl)-1H-pyrazol-4-yl)-N-(4-(4-((dimethylamino)methyl)-4-methylpiperidin-1-yl)-5-((1-methylcyclopropyl)ethynyl)pyridin-2-yl)pyrimidin-4-amine]",0.9 nM,,1.3 nM,,4.3 nM,3.3 nM,58.2 nM,2.7 nM,> 10000 nM,35.2 nM
"CN(C)CCC1CCN(c2cc(Nc3ccnc(-c4cnn(S(=O)(=O)C5CC5)c4)n3)ncc2C#CC2(C)CC2)CC1 [Example 407, 2-(1-(Cyclopropylsulfonyl)-1H-pyrazol-4-yl)-N-(4-(4-(2-(dimethylamino)ethyl)piperidin-1-yl)-5-((1-methylcyclopropyl)ethynyl)pyridin-2-yl)pyrimidin-4-amine]",0.3 nM,,0.4 nM,,0.7 nM,0.6 nM,13 nM,0.8 nM,1260 nM,4.4 nM
"O=C(N1CCC(C#Cc2cnc(Nc3ccnc(-c4cnn(S(=O)(=O)C5CC5)c4)n3)cc2NC2CCC(CO)CC2)C1)C(F)(F)F (stereo not drawn) [Example 408, 1-(3-((6-((2-(1-(Cyclopropylsulfonyl)-1H-pyrazol-4-yl)pyrimidin-4-yl)amino)-4-(((1s,4s)-4-(hydroxymethyl)cyclohexyl)amino)pyridin-3-yl)ethynyl)pyrrolidin-1-yl)-2,2,2-trifluoroethan-1-one]",0.1 nM,,0.2 nM,,2.1 nM,,26 nM,,6570 nM,
"O=C(N1CCC(C#Cc2cnc(Nc3ccnc(-c4cnn(S(=O)(=O)C5CC5)c4)n3)cc2NCC2CCC(O)CC2)C1)C(F)(F)F (stereo not drawn) [Example 409, 1-(3-((6-((2-(1-(Cyclopropylsulfonyl)-1H-pyrazol-4-yl)pyrimidin-4-yl)amino)-4-((((1 r,4r)-4-hydroxycyclohexyl)methyl)amino)pyridin-3-yl)ethynyl)pyrrolidin-1-yl)-2,2,2-trifluoroethan-1-one]",4.3 nM,,10.5 nM,,81.3 nM,,648 nM,,> 10000 nM,
"CC1(O)CCN(c2cc(Nc3ccnc(-c4cnn(S(=O)(=O)C5CC5)c4)n3)ncc2C#CC2CCN(C(=O)C(F)(F)F)C2)CC1 (stereo not drawn) [Example 410, 1-(3-((6-((2-(1-(Cyclopropylsulfonyl)-1H-pyrazol-4-yl)pyrimidin-4-yl)amino)-4-(4-hydroxy-4-methylpiperidin-1-yl)pyridin-3-yl)ethynyl)pyrrolidin-1-yl)-2,2,2-trifluoroethan-1-one]",0.2 nM,,0.6 nM,,3.1 nM,,29.4 nM,,7420 nM,
"O=C(N1CCC(C#Cc2cnc(Nc3ccnc(-c4cnn(S(=O)(=O)C5CC5)c4)n3)cc2NCC2CCC(CO)CC2)C1)C(F)(F)F (stereo not drawn) [Example 411, 1-(3-((6-((2-(1-(Cyclopropylsulfonyl)-1H-pyrazol-4-yl)pyrimidin-4-yl)amino)-4-((((1 r,4r)-4-(hydroxymethyl)cyclohexyl)methyl)amino)pyridin-3-yl)ethynyl)pyrrolidin-1-yl)-2,2,2-trifluoroethan-1-one]",7.3 nM,,35.9 nM,,59.8 nM,,979 nM,,> 10000 nM,
"CN(C)CC1(C)CCN(c2cc(Nc3ccnc(-c4cnn(S(=O)(=O)C5CC5)c4)n3)ncc2C#CC2CCN(C(=O)C(F)(F)F)C2)CC1 (stereo not drawn) [Example 412, 1-(3-((6-((2-(1-(Cyclopropylsulfonyl)-1H-pyrazol-4-yl)pyrimidin-4-yl)amino)-4-(4-((dimethylamino)methyl)-4-methylpiperidin-1-yl)pyridin-3-yl)ethynyl)pyrrolidin-1-yl)-2,2,2-trifluoroethan-1-one]",0.3 nM,,2.7 nM,,3.3 nM,,21.5 nM,,> 10000 nM,
"CN(C)CCC1CCN(c2cc(Nc3ccnc(-c4cnn(S(=O)(=O)C5CC5)c4)n3)ncc2C#CC2CCN(C(=O)C(F)(F)F)C2)CC1 (stereo not drawn) [Example 413, 1-(3-((6-((2-(1-(Cyclopropylsulfonyl)-1H-pyrazol-4-yl)pyrimidin-4-yl)amino)-4-(4-(2-(dimethylamino)ethyl)piperidin-1-yl)pyridin-3-yl)ethynyl)pyrrolidin-1-yl)-2,2,2-trifluoroethan-1-one]",0.1 nM,,1.4 nM,,0.8 nM,,10.3 nM,,2910 nM,
"O=C(N1CCC(C#Cc2cnc(Nc3ccnc(-c4cnn(S(=O)(=O)C5CC5)c4)n3)cc2NC2CCC(O)CC2)C1)C(F)(F)F (stereo not drawn) [Example 414, 1-(3-((6-((2-(1-(Cyclopropylsulfonyl)-1H-pyrazol-4-yl)pyrimidin-4-yl)amino)-4-(((1 s, 4s)-4-hydroxycyclohexyl)amino)pyridin-3-yl)ethynyl)pyrrolidin-1-yl)-2,2,2-trifluoroethan-1-one]",0.4 nM,,3.9 nM,,1.8 nM,,24.1 nM,,5190 nM,
"CC1(CO)CCN(c2cc(Nc3ccnc(-c4cnn(S(=O)(=O)C5CC5)c4)n3)ncc2C#CC2CCN(C(=O)C(F)(F)F)C2)CC1 (stereo not drawn) [Example 415, 1-(3-((6-((2-(1-(Cyclopropylsulfonyl)-1H-pyrazol-4-yl)pyrimidin-4-yl)amino)-4-(4-(hydroxymethyl)-4-methylpiperidin-1-yl)pyridin-3-yl)ethynyl)pyrrolidin-1-yl)-2,2,2-trifluoroethan-1-one]",0.2 nM,,1.7 nM,,1.2 nM,,21.6 nM,,5060 nM,
